Results from ChEMBL document CHEMBL4673282, “Identification of a New Heterocyclic Scaffold for Inhibitors of the Polo-Box Domain of Polo-like Kinase 1” (J Med Chem, 2020).
Values after ≈ are worked out from the molar mass of the structure shown.

What was measured:
[1] = Half life in rat liver microsomes at 1 uM measured up to 60 mins in presence of NADPH generating system; conditions: 1 h
[2] = Aqueous solubility of compound; type: physicochemical; conditions: buffer
[3] = in vitro; conditions: PAMPA
Description: Permeability of the compound by PAMPA

SMILES	t1/2 [1] [min]	solubility [2]	Papp [3] [×10⁻⁶ cm/s]
O=C(NCCCn1c(=O)c2cc(F)ccc2n2c(=S)[nH]nc12)C1CCCNC1 (racemic)	> 30	29.6 µg/mL (≈ 73.2 µM)	
Cc1ccc2c(c1)c(=O)n(CCc1ccccc1)c1n[nH]c(=S)n21	> 30	< 1 µg/mL	
O=c1c2cc(F)ccc2n2c(=S)[nH]nc2n1CCN1CCOCC1	> 30	> 52 µg/mL	67
CC(=O)Nc1ccc2c(c1)c(=O)n(CCc1ccccc1)c1n[nH]c(=S)n21	> 30	2.2 µg/mL (≈ 5.8 µM)	253
NCCCn1c(=O)c2cccc(F)c2n2c(=S)[nH]nc12	> 30		
CC(C)CNC(=O)CCn1c(=O)c2ccccc2n2c(=S)[nH]nc12		30.8 µg/mL (≈ 89.2 µM)	
O=C(Cc1ccc(O)cc1)NCCCn1c(=O)c2cc(F)ccc2n2c(=S)[nH]nc12	> 30		
CC(C)(C)OC(=O)NC1CCC(C(=O)NCCCn2c(=O)c3cc(F)ccc3n3c(=S)[nH]nc23)CC1 (racemic)	24.8	> 77 µg/mL	330
O=c1c2cc(F)ccc2n2c(=S)[nH]nc2n1CCc1cccnc1	> 30	25.1 µg/mL (≈ 73.5 µM)	< 1
O=c1c2cc(F)ccc2n2c(=S)[nH]nc2n1CCc1ccc(Cl)cc1	> 30	1.2 µg/mL (≈ 3.2 µM)	< 1
CC(=O)NCCCn1c(=O)c2cc(F)ccc2n2c(=S)[nH]nc12	> 30	> 50 µg/mL	18
N#Cc1ccccc1CC(=O)NCCCn1c(=O)c2cc(F)ccc2n2c(=S)[nH]nc12	> 30		
CCn1c(=O)c2ccccc2n2c(=S)[nH]nc12	> 30	> 36 µg/mL	427
N[C@@H](CCC(=O)O)C(=O)NCCCn1c(=O)c2cc(F)ccc2n2c(=S)[nH]nc12	> 30	32 µg/mL (≈ 75.8 µM)	
NCCCn1c(=O)c2cc(F)ccc2n2c(=S)[nH]nc12.O=C(O)C(F)(F)F	> 30	> 43 µg/mL	< 1
O=c1c2cc(F)ccc2n2c(=S)[nH]nc2n1CCC1CCC(F)(F)CC1	> 30	< 1 µg/mL	201
CCCn1c(=O)c2ccccc2n2c(=S)n(CN(C)C3CC3)nc12		Insoluble	
O=c1c2cc(F)ccc2n2c(=S)[nH]nc2n1CCc1ccncc1	> 30	10.9 µg/mL (≈ 31.9 µM)	
O=c1c2cc(I)ccc2n2c(=S)[nH]nc2n1CCc1ccccc1	> 30	< 1 µg/mL	
O=C(Cc1ccncc1)NCCCn1c(=O)c2cc(F)ccc2n2c(=S)[nH]nc12	> 30		< 1
CC(C)(C)OC(=O)CC[C@@H](NC(=O)OC(C)(C)C)C(=O)NCCCn1c(=O)c2cc(F)ccc2n2c(=S)[nH]nc12	25.1	20.4 µg/mL (≈ 35.3 µM)	
CC(=O)NCCn1c(=O)c2cc(F)ccc2n2c(=S)[nH]nc12	> 30	> 47 µg/mL	
O=c1c2ccc(F)cc2n2c(=S)[nH]nc2n1CCc1ccccc1	22.7	< 1 µg/mL	91
O=C(CC1CCNCC1)NCCCn1c(=O)c2cc(F)ccc2n2c(=S)[nH]nc12	> 30	37.5 µg/mL (≈ 89.6 µM)	
O=C(NCCCn1c(=O)c2cc(F)ccc2n2c(=S)[nH]nc12)c1ccc(Cn2ccnc2)cc1	> 30		

SMILES	t1/2 [1] [min]	solubility [2]	Papp [3] [×10⁻⁶ cm/s]
O=C(Cc1ccc(Br)cc1)NCCCn1c(=O)c2cc(F)ccc2n2c(=S)[nH]nc12	20.6	< 1 µg/mL	
CS(=O)(=O)NCCn1c(=O)c2cc(F)ccc2n2c(=S)[nH]nc12	> 30	> 53 µg/mL	
O=C(Cc1cccc(Cl)c1)NCCCn1c(=O)c2cc(F)ccc2n2c(=S)[nH]nc12	8.4	> 66 µg/mL	
NCCCCCC(=O)NCCCn1c(=O)c2cc(F)ccc2n2c(=S)[nH]nc12	> 30	31.8 µg/mL (≈ 78.2 µM)	
O=c1c2ccccc2n2c(=O)[nH]nc2n1CCc1ccccc1		< 1 µg/mL	
O=c1c2cc(F)ccc2n2c(=S)[nH]nc2n1CCP(=O)(O)O		> 51 µg/mL	
O=c1c2ncccc2n2c(=S)[nH]nc2n1CCc1ccccc1	> 30	26.9 µg/mL (≈ 83.2 µM)	
O=C(NCCCn1c(=O)c2cc(F)ccc2n2c(=S)[nH]nc12)C1CCOCC1		< 1 µg/mL	8
CC(C)OCCCn1c(=O)c2cc(Cl)ccc2n2c(=S)[nH]nc12		8.6 µg/mL (≈ 24.4 µM)	
CC(C)(C)OC(=O)CC[C@H](N)C(=O)NCCCn1c(=O)c2cc(F)ccc2n2c(=S)[nH]nc12	> 30	37.5 µg/mL (≈ 78.4 µM)	
CCOP(=O)(CCn1c(=O)c2cc(F)ccc2n2c(=S)[nH]nc12)OCC	> 30	> 59 µg/mL	
COc1ccccc1CC(=O)NCCCn1c(=O)c2cc(F)ccc2n2c(=S)[nH]nc12	16.1	> 65 µg/mL	
O=C(Cc1cccc(F)c1)NCCCn1c(=O)c2cc(F)ccc2n2c(=S)[nH]nc12	26.5	> 63 µg/mL	
CC(C)(C)OC(=O)CC[C@H](N)C(=O)NCCOCCOCCOCCOCCC(=O)NCCCn1c(=O)c2cc(F)ccc2n2c(=S)[nH]nc12	> 30	> 107 µg/mL	
CCCn1c(=O)c2ccccc2n2c(=S)n(CN(CC)CC3CC3)nc12		8.7 µg/mL (≈ 23.4 µM)	
NCCn1c(=O)c2cc(F)ccc2n2c(=S)[nH]nc12	> 30	> 41 µg/mL	
O=C(Cc1ccccc1C(F)(F)F)NCCCn1c(=O)c2cc(F)ccc2n2c(=S)[nH]nc12	3.7		
CC(C)(C)OC(=O)N1CCN(CCn2c(=O)c3cc(F)ccc3n3c(=S)[nH]nc23)CC1	26.3	20.5 µg/mL (≈ 45.7 µM)	
CC(C)(C)OC(=O)CC[C@H](NC(=O)OC(C)(C)C)C(=O)NCCCn1c(=O)c2cc(F)ccc2n2c(=S)[nH]nc12	3.8	41.6 µg/mL (≈ 71.9 µM)	
O=C(Cc1ccc(F)cc1)NCCCn1c(=O)c2cc(F)ccc2n2c(=S)[nH]nc12	26.3		
CC(C)(C)[C@H]1CC[C@H](C(=O)NCCCn2c(=O)c3cc(F)ccc3n3c(=S)[nH]nc23)CC1	> 30	1.1 µg/mL (≈ 2.39 µM)	
O=C(NCCCn1c(=O)c2cc(F)ccc2n2c(=S)[nH]nc12)C1CCNCC1	> 30	> 60 µg/mL	
CC(C)NC(=O)CCn1c(=O)c2cc(Cl)ccc2n2c(=S)[nH]nc12		8.1 µg/mL (≈ 22.1 µM)	
O=c1c2cc(F)ccc2n2c(=S)[nH]nc2n1CCc1ccccc1Cl	22.8	3 µg/mL (≈ 8 µM)	
O=C(Cc1ccccn1)NCCCn1c(=O)c2cc(F)ccc2n2c(=S)[nH]nc12	> 30		

SMILES	t1/2 [1] [min]	solubility [2]	Papp [3] [×10⁻⁶ cm/s]
O=c1c2cc(N3CCOCC3)ccc2n2c(=S)[nH]nc2n1CCc1ccccc1	> 30	3.4 µg/mL (≈ 8.34 µM)	
O=C(NCCCn1c(=O)c2cc(F)ccc2n2c(=S)[nH]nc12)C1CCCCN1 (racemic)	> 30	> 60 µg/mL	
CC(C)(C)OC(=O)NCCOCCOCCOCCC(=O)NCCCn1c(=O)c2cc(F)ccc2n2c(=S)[nH]nc12	27.9	> 88 µg/mL	
CC(C)(C)OC(=O)Nc1ccc(CC(=O)NCCCn2c(=O)c3cc(F)ccc3n3c(=S)[nH]nc23)cc1	> 30		
CN1CCCC1CCn1c(=O)c2cc(F)ccc2n2c(=S)[nH]nc12 (racemic)	> 30	17.8 µg/mL (≈ 51.2 µM)	
CCn1c(=O)c2cc(F)ccc2n2c(=S)[nH]nc12	> 30	> 39 µg/mL	
O=c1c2cc(F)ccc2n2c(=S)[nH]nc2n1CCCc1ccccc1	8.8	< 1 µg/mL	
CC(C)(C)OC(=O)N1CC(CCn2c(=O)c3cc(F)ccc3n3c(=S)[nH]nc23)C1		15 µg/mL (≈ 35.8 µM)	229
COc1ccc(CC(=O)NCCCn2c(=O)c3cc(F)ccc3n3c(=S)[nH]nc23)cc1	> 30		
CC(C)n1c(=O)c2ccccc2n2c(=S)[nH]nc12		19.5 µg/mL (≈ 74.9 µM)	
O=C(Cc1cccc(C(F)(F)F)c1)NCCCn1c(=O)c2cc(F)ccc2n2c(=S)[nH]nc12	17.3		
N[C@@H](CCC(=O)O)C(=O)NCCOCCOCCOCCOCCC(=O)NCCCn1c(=O)c2cc(F)ccc2n2c(=S)[nH]nc12	> 30	> 99 µg/mL	
O=c1c2cc(F)ccc2n2c(=S)[nH]nc2n1CCc1ccccc1	> 30		77
NCCOCCOCCOCCC(=O)NCCCn1c(=O)c2cc(F)ccc2n2c(=S)[nH]nc12	> 30	36.1 µg/mL (≈ 72.7 µM)	
O=c1c2cccnc2n2c(=S)[nH]nc2n1CCc1ccccc1	> 30	4.9 µg/mL (≈ 15.2 µM)	
N#Cc1ccc(CC(=O)NCCCn2c(=O)c3cc(F)ccc3n3c(=S)[nH]nc23)cc1	> 30		
CCCn1c(=O)c2ccccc2n2c(=S)[nH]nc12	> 30		
O=C(Cc1ccccc1)NCCCn1c(=O)c2cc(F)ccc2n2c(=S)[nH]nc12	18.7		
NC1CCC(C(=O)NCCCn2c(=O)c3cc(F)ccc3n3c(=S)[nH]nc23)CC1 (racemic)	> 30	38.8 µg/mL (≈ 92.7 µM)	
CN1CCN(CCn2c(=O)c3cc(F)ccc3n3c(=S)[nH]nc23)CC1	> 30	> 54 µg/mL	
Cc1nnc2n(CCc3ccccc3)c(=O)c3cc(F)ccc3n12	10.7	11 µg/mL (≈ 34.1 µM)	
CS(=O)(=O)NCCCn1c(=O)c2cc(F)ccc2n2c(=S)[nH]nc12	> 30	34 µg/mL (≈ 91.5 µM)	
CCCn1c(=O)c2cc(F)ccc2n2c(=S)[nH]nc12	> 30	> 28 µg/mL	
Cc1ccc(CC(=O)NCCCn2c(=O)c3cc(F)ccc3n3c(=S)[nH]nc23)cc1	23.9		
O=C(Cc1cccnc1)NCCCn1c(=O)c2cc(F)ccc2n2c(=S)[nH]nc12	> 30		
